Results from ChEMBL document CHEMBL3785063 (Eur J Clin Pharmacol, 1981).

Assays:
[1] = Tmax in arrhythmia patient (7 patients) at 400 mg, iv after 4 days 400 mg, po dose administered followed continuous oral therapy with 200 mg, tid by HPLC analysis; conditions: human, in vivo
[2] = Drug excretion in arrhythmia patient (7 patients) assessed as unchanged compound level in urine at 400 mg, iv after 4 days 400 mg, po dose administered followed continuous oral therapy with 200 mg, tid measured 2 hrs after iv drug challenge by HPLC analysis; conditions: human
[3] = Drug uptake in arrhythmia patient (7 patients) serum at 400 mg, iv after 4 days 400 mg, po dose administered followed continuous oral therapy with 200 mg, tid measured 2 hrs after iv drug challenge by HPLC analysis; conditions: human
[4] = Drug concentration in arrhythmia patient (7 patients) serum at 400 mg, iv after 4 days 400 mg, po dose administered followed continuous oral therapy with 200 mg, tid measured after 24 hrs by HPLC analysis; conditions: human
[5] = Drug concentration in arrhythmia patient (7 patients) serum at 400 mg, iv after 4 days 400 mg, po dose administered followed continuous oral therapy with 200 mg, tid measured after 48 hrs by HPLC analysis; conditions: human
[6] = Drug concentration in arrhythmia patient (7 patients) serum at 400 mg, iv after 4 days 400 mg, po dose administered followed continuous oral therapy with 200 mg, tid measured after 1 week by HPLC analysis; conditions: human
[7] = Drug concentration in arrhythmia patient (7 patients) serum at 400 mg, iv after 4 days 400 mg, po dose administered followed continuous oral therapy with 200 mg, tid measured after 1 month by HPLC analysis; conditions: human

CCCCc1oc2ccccc2c1C(=O)c1cc(I)c(OCCN(CC)CC)c(I)c1 [AMIODARONE]
Tmax at 96 h [1]: 7.3 h
concentration at 2 h [2]: 100 ng/mL
concentration at 2 h [3]: 2000 ng/mL
concentration at 24 h [4]: 610 ng/mL
concentration at 48 h [5]: 760 ng/mL
concentration at 1 week [6]: 1180 ng/mL
concentration at 96 h [7]: 1560 ng/mL
